Data as given in patent US4332820A, “Substituted benzonitriles having antiviral activity” (The Dow Chemical Company, priority 1980, dated 1982).
Values after ≈ are worked out from the molar mass of the structure shown.

Legend:
rhinovirus type 2 (RV-2) = assay: Tissue culture antiviral testing, RV-2 (cytopathic effect, HeLa cells); format: cell-based; conditions: for EC50: Enterovirus, HeLa cells, NA = not active at the standard test conditions, read-out: Lowest concentration of the compound necessary to cause a 50 percent reduction in cytopathic effect
Cox A21 = assay: Single Oral Dose test in mice challenged with Cox A21; format: in vivo, Swiss male mice; conditions: po, 600 mg/kg, 3 h
[1] = test system: Coxsackie A21 virus (Cox A21); assay: Tissue culture antiviral testing, Cox A21 (cytopathic effect, HeLa cells); format: cell-based; conditions: for EC50: HeLa cells, NA = not active at the standard test conditions, read-out: Lowest concentration of the compound necessary to cause a 50 percent reduction in cytopathic effect
[2] = Cytotoxicity in tissue culture (HeLa monolayers); format: cell-based; conditions: human; HeLa cells; observed at 48 and 72 hours post-treatment; read-out: Cytotoxicity (concentration of the compound found to be toxic to the cell)
[3] = test system: rhinovirus type 1A (RV-1A); assay: Tissue culture antiviral testing, RV-1A (cytopathic effect, HeLa cells); format: cell-based; conditions: for EC50: Enterovirus, HeLa cells, NA = not active at the standard test conditions, read-out: Lowest concentration of the compound necessary to cause a 50 percent reduction in cytopathic effect
Coxsackie A21 virus = assay: Continuous Oral Feeding test in mice challenged with Coxsackie A21; format: in vivo; conditions: for X^2 (Continuous Oral Feeding, chi-square of deaths): 0.06 % in diet, 240 h, 0.06 % strength
rhinovirus type 5 (RV-5) = assay: Tissue culture antiviral testing, RV-5 (cytopathic effect, HeLa cells); format: cell-based; conditions: for EC50: Enterovirus, HeLa cells, read-out: Lowest concentration of the compound necessary to cause a 50 percent reduction in cytopathic effect
[4] = test system: rhinovirus type 64 (RV-64); assay: Tissue culture antiviral testing, RV-64 (cytopathic effect, HeLa cells); format: cell-based; conditions: for EC50: Enterovirus, HeLa cells, NA = not active at the standard test conditions, read-out: Lowest concentration of the compound necessary to cause a 50 percent reduction in cytopathic effect
rhinovirus type 8 (RV-8) = assay: Tissue culture antiviral testing, RV-8 (cytopathic effect, HeLa cells); format: cell-based; conditions: for EC50: Enterovirus, HeLa cells, read-out: Lowest concentration of the compound necessary to cause a 50 percent reduction in cytopathic effect

Compound | EC50 (rhinovirus type 2 (RV-2)) | EC50 [1] | EC50 [3] | EC50 (rhinovirus type 5 (RV-5)) | EC50 [4] | EC50 (rhinovirus type 8 (RV-8)) | MCC [2] | X^2 (Continuous Oral Feeding, chi-square of deaths) (Coxsackie A21 virus) | further results
N#Cc1cc([N+](=O)[O-])ccc1Oc1ccc(Br)cc1 [Example 3, 2-(4-Bromophenoxy)-5-nitrobenzonitrile] | 1.25 µg/mL (≈ 3.92 µM) | 2.5 µg/mL (≈ 7.83 µM) | 1.25 µg/mL (≈ 3.92 µM) | – | – | – | > 100 µg/mL | 5.81 | X^2 (Single Oral Dose, chi-square of deaths vs virus control) (Cox A21): 2.139
N#Cc1cc([N+](=O)[O-])ccc1Oc1ccc(F)cc1 [Example 21, 2-(4-Fluorophenoxy)-5-nitrobenzonitrile] | < 0.625 µg/mL | 0.625 µg/mL (≈ 2.42 µM) | 0.625 µg/mL (≈ 2.42 µM) | 1.25 µg/mL (≈ 4.84 µM) | 0.625 µg/mL (≈ 2.42 µM) | 0.625 µg/mL (≈ 2.42 µM) | 10 µg/mL | 10.513 | –
N#Cc1cc(Oc2ccc(Cl)c(Cl)c2)ccc1[N+](=O)[O-] [5-(3,4-dichlorophenoxy)-2-nitrobenzonitrile, reference compound] | – | – | – | – | – | – | – | – | antiviral activity at the test concentrations employed (rhinovirus type 5 (RV-5); in words): not active; concentration required to produce a 50% reduction in cytopathic effect, compared with 2-(3,4-dichlorophenoxy)-5-nitrobenzonitrile (rhinovirus type 2 (RV-2); in words): higher concentrations; antiviral activity at the test concentrations employed ([4]; in words): not active; antiviral activity at the test concentrations employed (rhinovirus type 8 (RV-8); in words): not active; concentration required to produce a 50% reduction in cytopathic effect, compared with 2-(3,4-dichlorophenoxy)-5-nitrobenzonitrile ([1]; in words): higher concentrations; concentration required to produce a 50% reduction in cytopathic effect, compared with 2-(3,4-dichlorophenoxy)-5-nitrobenzonitrile ([3]; in words): higher concentrations; antiviral activity in the "Continuous Oral Feeding" test (Coxsackie A21 virus; in words, 95% confidence level): failed to exhibit antiviral activity
N#Cc1cc([N+](=O)[O-])ccc1Oc1c(F)c(F)c(F)c(F)c1F [Example 19, 2-(2,3,4,5,6-Pentafluorophenoxy)-5-nitrobenzonitrile] | ≤ 3.12 µg/mL | 6.25 µg/mL (≈ 18.9 µM) | 6.25 µg/mL (≈ 18.9 µM) | 1.25 µg/mL (≈ 3.79 µM) | 0.312 µg/mL (≈ 0.946 µM) | 1.25 µg/mL (≈ 3.79 µM) | 12.5 µg/mL | – | –
CCN(CC)S(=O)(=O)c1ccc(Oc2ccc([N+](=O)[O-])cc2C#N)cc1 [Example 10, N,N-Diethyl-4-(2-cyano-4-nitrophenoxy)benzenesulfonamide] | – | < 6.25 µg/mL | ~50 µg/mL (≈ 133 µM) | – | – | – | > 100 µg/mL | 2.84 | –
CN(C)S(=O)(=O)c1ccc(Oc2ccc([N+](=O)[O-])cc2C#N)cc1 [Example 9, N,N-Dimethyl-4-(2-cyano-4-nitrophenoxy)benzenesulfonamide] | – | < 6.25 µg/mL | – | – | – | – | > 100 µg/mL | 9.03 | –
CC(=O)c1ccc(Oc2ccc([N+](=O)[O-])cc2C#N)cc1 [Example 15, 2-(4-Acetylphenoxy)-5-nitrobenzonitrile] | 3.12 µg/mL (≈ 11.1 µM) | < 3.12 µg/mL | 6.25 µg/mL (≈ 22.1 µM) | 6.25 µg/mL (≈ 22.1 µM) | 6.25 µg/mL (≈ 22.1 µM) | 3.12 µg/mL (≈ 11.1 µM) | > 50 µg/mL | – | –
N#Cc1cc([N+](=O)[O-])ccc1Sc1ccc(Cl)cc1 [Example 12, 2-((4-Chlorophenyl)thio)-5-nitrobenzonitrile] | ≤ 1.6 µg/mL | 1.6 µg/mL (≈ 5.5 µM) | ~3.12 µg/mL (≈ 10.7 µM) | – | – | – | 25 µg/mL | 0.215 | X^2 (Single Oral Dose, chi-square of deaths vs virus control) (Cox A21): 4.805
C[S+]([O-])c1ccc(Oc2ccc([N+](=O)[O-])cc2C#N)cc1 (centres unmarked) [Example 7, 2-(4-(Methylsulfinyl)phenoxy)-5-nitrobenzonitrile] | 6.25 µg/mL (≈ 20.7 µM) | < 6.25 µg/mL | – | – | – | – | 50 µg/mL | 18.82 | X^2 (Single Oral Dose, chi-square of deaths vs virus control) (Cox A21): 18.94

More lines, main results first:

EC50 (rhinovirus type 2 (RV-2)) | EC50 [1] | EC50 [3] | EC50 (rhinovirus type 5 (RV-5)) | EC50 [4] | EC50 (rhinovirus type 8 (RV-8)) | Compound | MCC [2] | X^2 (Continuous Oral Feeding, chi-square of deaths) (Coxsackie A21 virus) | further results
< 3.12 µg/mL | < 3.12 µg/mL | < 3.12 µg/mL | – | < 3.12 µg/mL | – | N#Cc1cc([N+](=O)[O-])ccc1Oc1cccc(Cl)c1Cl [Example 22, 2-(2,3-Dichlorophenoxy)-5-nitrobenzonitrile] | > 50 µg/mL | – | –
< 3.12 µg/mL | 6.25 µg/mL (≈ 20.2 µM) | 3.12 µg/mL (≈ 10.1 µM) | ≤ 6.25 µg/mL | 3.12 µg/mL (≈ 10.1 µM) | < 6.25 µg/mL | N#Cc1cc([N+](=O)[O-])ccc1Oc1cc(Cl)ccc1Cl [Example 23, 2-(2,5-Dichlorophenoxy)-5-nitrobenzonitrile] | > 50 µg/mL | – | –
3.12 µg/mL (≈ 10.1 µM) | – | 6.25 µg/mL (≈ 20.2 µM) | 6.25 µg/mL (≈ 20.2 µM) | 25 µg/mL (≈ 80.9 µM) | 3.12 µg/mL (≈ 10.1 µM) | N#Cc1cc([N+](=O)[O-])ccc1Oc1cc(Cl)cc(Cl)c1 [Example 25, 2-(3,5-Dichlorophenoxy)-5-nitrobenzonitrile] | > 50 µg/mL | – | –
1.25 µg/mL (≈ 4.06 µM) | 10 µg/mL (≈ 32.4 µM) | – | – | – | – | N#Cc1cc([N+](=O)[O-])ccc1Oc1ccccc1C(F)(F)F [Example 26, 2-((2-Trifluoromethyl)phenoxy)-5-nitrobenzonitrile] | ≥ 20 µg/mL | – | –
2.5 µg/mL (≈ 7.28 µM) | – | 2.5 µg/mL (≈ 7.28 µM) | – | – | – | N#Cc1cc([N+](=O)[O-])ccc1Oc1cc(Cl)cc(Cl)c1Cl [Example 30, 2-(2,3,5-Trichlorophenoxy)-5-nitrobenzonitrile] | > 20 µg/mL | – | –
